Test results reported in BindingDB's records for doi:10.1021/jm00031a017 (University of California, 1994).

System: recombinant HIV-2 protease
Experiment: In vitro inhibition of recombinant HIV-2 protease expressed in Escherichia coli strain X90

`O=C(C=CC[N+]1([O-])CCC(O)(c2ccc(Cl)cc2)CC1)c1ccc(F)cc1` (stereo unspecified) [(E)-4-[4-(4-Chloro-phenyl)-4-hydroxy-1-oxy-piperidin-1-yl]-1-(4-fluoro-phenyl)-but-2-en-1-one] was tested, and the IC50 was 40 µM.
